For experiment [1], the system named is Puccinia recondita. Put plainly: Preventative control of brown rust on wheat (glass house trial). Type of experiment: in vivo, Puccinia recondita on wheat. As to conditions: 63 ppm active compound, sprayed 1 day before inoculation, assessed after 6 days; untreated plants 90%. As for the experimental part:
(§1) The spray solutions were prepared in several steps: the stock solutions were prepared: a mixture of acetone and/or dimethylsulfoxide and the wetting agent/emulsifier Wettol, which is based on ethoxylated alkylphenoles, in a relation (volume) solvent-emulsifier of 99 to 1 was added to 25 mg of the compound to give a total of 5 ml. Water was then added to total volume of 100 ml. This stock solution was diluted with the described solvent-emulsifier-water mixture to the given concentration.
The first two developed leaves of pot-grown wheat seedling were sprayed to run-off with an aqueous suspension, containing the concentration of active ingredient or their mixture as described below. The next day the plants were inoculated with spores of Puccinia recondita. To ensure the success the artificial inoculation, the plants were transferred to a humid chamber without light and a relative humidity of 95 to 99% and 20 to 24° C. for 24 hours. Then the trial plants were cultivated for 6 days in a greenhouse chamber at 20 to 24° C. and a relative humidity between 65 and 70%. The extent of fungal attack on the leaves was visually assessed as % diseased leaf area.

The test system of experiment [2] is Puccinia recondita. The experiment in a line: Curative control of brown rust on wheat (glass house trial). Type of experiment: in vivo, Puccinia recondita on wheat. As to conditions: 63 ppm active compound, sprayed after inoculation, assessed after 8 days; untreated plants 90%. How it is done:
as §1
The first two developed leaves of pot-grown wheat seedling were dusted with spores of Puccinia recondita. To ensure the success the artificial inoculation, the plants were transferred to a humid chamber without light and a relative humidity of 95 to 99% and 20 to 24° C. for 24 hours. The next day the plants were cultivated for 3 days in a greenhouse chamber at 20 to 24° C. and a relative humidity between 65 and 70%. Then the plants were sprayed to run-off with an aqueous suspension, containing the concentration of active ingredient or their mixture as described below. The plants were allowed to air-dry. Then the trial plants were cultivated for 8 days in a greenhouse chamber at 20 to 24° C. and a relative humidity between 65 and 70%. The extent of fungal attack on the leaves was visually assessed as % diseased leaf area.

This is an account of results in patent publication US10499644B2, “Substituted oxadiazoles for combating phytopathogenic fungi” (BASF SE, priority 2015, dated 2019).

For `CC(=O)NC1(c2ccc(-c3noc(C(F)(F)F)n3)cc2)CC1` [Ex-2, N-[1-[4-[5-(trifluoromethyl)-1,2,4-oxadiazol-3-yl]phenyl]-cyclopropyl]acetamide], the diseased leaf area stood at 2% with Puccinia recondita [1] and 1% with Puccinia recondita [2].
